Data taken from patent US9133235B2, “Macrocyclic antagonists of the motilin receptor for treatment of gastrointestinal dysmotility disorders” (Ocera Therapeutics, Inc., priority 2006, dated 2015).

Legend:
Caco-2 cells = assay: Caco-2 permeability; format: in vitro ADME, human
Excerpt: H. Determination of Caco-2 Permeability
The Caco-2 cell line, derived from a human colorectal carcinoma, has become an established in vitro model for the prediction of drug absorption across the human intestine. (Sun, D.; Yu, L. X.; Hussain, M. A.; Wall, D. A.; Smith, R. L.; Amidon, G. L. Curr. Opin. Drug Discov. Devel. 2004, 7, 75-85; Bergstrom, C. A. Basic Clin. Pharmacol. Toxicol. 2005, 96, 156-61; Balimane, P. V.; Han, Y. H.; Chong, S. AAPS J 2006, 8, E1-13; Shah, P.; Jogani, V.; Bagchi, T.; Misra, A. Biotechnol. Prog. 2006, 22, 186-198) When cultured on semi-permeable membranes, Caco-2 cells differentiate into a highly functionalized epithelial barrier with remarkable morphological and biochemical similarity to the small intestinal columnar epithelium. Fully differentiated cell monolayers can be used to assess the membrane transport properties of novel compounds.
Permeability across the Caco-2 cell layer was determined by growing the cells on a membrane placed between two (donor and acceptor) chambers. Drug candidates are typically added to the apical (A) side of the cell layer and their appearance in the basolateral (B) side is measured over incubation time. Permeability in this direction represents intestinal absorption. Permeability may also be determined from the basolateral to the apical side of the Caco-2 cell. […]
Permeability (10 μM) for compounds of the invention in the apical to basolateral and basolateral to apical direction were tested in duplicate. Samples will be collected from the donor and acceptor chambers at the beginning (0 min) and following 60 min of incubation at 37° C. and stored frozen at −70° C. until bioanalysis. Samples for each test compound generated from the Caco-2 permeability assay were further analyzed by LC-MS-MS. The permeability of [^3H]-mannitol and [^3H]-propranolol were determined in parallel as controls.
The permeability coefficient (Papp) of each compound and radiolabeled standard was determined using the following equation:
[formula] where dQ/dT represents the permeability rate, Ci denotes the initial concentration in the donor compartment, and A represents the surface area of the filter. Ci is determined from the mean concentration of duplicate samples taken prior to addition to the donor compartment. Permeability rates were calculated by plotting the cumulative amount of compound measured in the acceptor compartment over time and determining the slope of the line by linear regression analysis. The duplicate and mean apical to basolateral and basolateral to apical Papp's were reported for each compound and standard.

human motilin receptor = human motilin receptor (Homo sapiens, UniProt O43193); assay: Aequorin functional assay (motilin receptor); format: cell-based; set-up: host or cells: CHO-K1 cells co-expressing Gα16 and mitochondrially targeted Aequorin; details: functional activity, antagonist testing vs motilin 0.5 nM (EC80)
human motilin receptor, sequence (O43193 whole entry): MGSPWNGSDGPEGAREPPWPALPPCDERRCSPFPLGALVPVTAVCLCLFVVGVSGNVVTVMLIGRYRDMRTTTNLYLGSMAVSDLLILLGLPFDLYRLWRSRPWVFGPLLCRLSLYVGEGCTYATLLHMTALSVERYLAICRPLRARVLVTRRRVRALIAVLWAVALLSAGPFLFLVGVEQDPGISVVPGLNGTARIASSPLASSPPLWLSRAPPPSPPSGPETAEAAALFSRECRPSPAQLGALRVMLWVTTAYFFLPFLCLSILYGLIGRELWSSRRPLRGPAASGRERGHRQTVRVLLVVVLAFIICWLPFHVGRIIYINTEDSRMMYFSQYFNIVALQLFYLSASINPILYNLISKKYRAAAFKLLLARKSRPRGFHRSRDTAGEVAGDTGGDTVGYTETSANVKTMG
Method: B. Aequorin Functional Assay (Motilin Receptor)
The evaluation of compounds of the invention for functional activity can be conducted according to literature methods or as described below. (Carreras, C. W.; Siani, M. A.; Santi, D. V.; Dillon, S. B. Anal. Biochem. 2002, 300, 146-151.)
• Membranes were prepared using AequoScreen™ (EUROSCREEN, Belgium) cell lines expressing the human motilin receptor (cell line ES-380-A; receptor accession #AF034632). This cell line is constructed by transfection of the human motilin receptor into CHO-K1 cells co-expressing Gα16 and the mitochondrially targeted Aequorin (Ref. #ES-WT-A5). • Motilin (Bachem, #H-4385) • Assay buffer: DMEM-F12 (Dulbeccoe's Modified Eagles Medium) with 15 mM HEPES and 0.1% BSA (pH 7.0) • Coelenterazine (Molecular Probes™, Leiden, The Netherlands) Final Test Concentrations (N=5) for Compounds: • 10, 3.16, 1.0, 0.316, 0.10 μM. Compound Handling:
Compounds were provided as dry films at a quantity of approximately 1.2 μmol in pre-formatted 96-well plates. Compounds were dissolved in 100% DMSO at a concentration of 10 mM and stored at −20° C. until further use. Daughter plates were prepared at a concentration of 500 μM in 30% DMSO with 0.1% BSA and stored at −20° C. until testing. On the test day, compounds were allowed to thaw at room temperature and than diluted in assay buffer according to the desired test concentrations. Under these conditions, the maximum final DMSO concentration in the assay was 0.6%.
Cells are collected from culture plates with Ca^2+ and Mg^2+-free phosphate buffered saline (PBS) supplemented with 5 mM EDTA, pelleted for 2 minutes at 1000×g, resuspended in assay buffer (see above) at a density of 5×10^6 cells/mL and incubated overnight in the presence of 5 μM coelenterazine. After loading, cells were diluted with assay buffer to a concentration of 5×10^5 cells/mL.
For agonist testing, 50 μL of the cell suspension was mixed with 50 μL of the appropriate concentration of test compound or motilin (reference agonist) in 96-well plates (duplicate samples). The emission of light resulting from receptor activation was recorded using the Functional Drug Screening System 6000 ‘FDSS 6000’ (Hamamatsu Photonics K. K., Japan).
For antagonist testing, an approximate EC80 concentration of motilin (i.e. 0.5 nM; 100 μL) was injected onto the cell suspension containing the test compounds (duplicate samples) 15-30 minutes after the end of agonist testing and the consequent emission of light resulting from receptor activation was measured as described in the paragraph above.
Results are expressed as Relative Light Units (RLU). Concentration response curves were analyzed using GraphPad™ Prism® (GraphPad Software, San Diego, Calif.) by non-linear regression analysis (sigmoidal dose-response) based on the equation E=Emax/(1+EC50/C)n where E is the measured RLU value at a given agonist concentration (C), Emax is the maximal response, EC50 is the concentration producing 50% stimulation and n is the slope index. For agonist testing, results for each concentration of test compound were expressed as percent activation relative to the signal induced by motilin at a concentration equal to the EC80 (i.e. 0.5 nM). For antagonist testing, results for each concentration of test compound were expressed as percent inhibition relative to the signal induced by motilin at a concentration equal to the EC80 (i.e. 0.5 nM).

Row | Papp A to B (Caco-2 cells; 10 μM, apical to basolateral, 60 min, 37° C.) | Papp B to A (Caco-2 cells; 10 μM, basolateral to apical, 60 min, 37° C.) | B to A/A to B (Caco-2 cells; ratio of Papp) | IC50 (human motilin receptor) | SMILES
1 | 5 cm/sec × 10^−6 | 11 cm/sec × 10^−6 | 2 | ≤ 10 nM | CC(C)[C@H]1NC(=O)[C@@H](Cc2cccc(C(F)(F)F)c2)NCCOc2ccccc2CCCNC(=O)[C@H](CN(C)C)NC1=O [Compound 502]
2 |  |  |  | ≤ 1 nM | CCC[C@@H]1NC(=O)[C@@H](C(C)C)NC(=O)[C@@H](Cc2ccc(O)c(Cl)c2)N[C@@H](C)COc2ccccc2CCCNC1=O [Compound 552]
